Data published in patent publication US10301295B2, “Herbicidal compounds” (Syngenta Participations AG, priority 2014, dated 2019).
Read-outs that look alike come from different tables or passages of the source.

Tests used:
Type in all cases: in vivo
wheat = test: Post-emergence herbicidal activity against cereal crops (wheat) +/- safener, crop selectivity; settings: 100%=total damage to plant, 0%=no damage; for Post-emergence herbicidal activity against wheat (percentage phytotoxicity), +CQC: 250 g/ha, plus safener cloquintocet-mexyl (CQC) applied at 50 g/ha; for percent phytotoxicity (crop damage) to wheat at 250 g/ha: Triticum aestivum, 360 h, without safener, read-out: Post-emergence herbicidal activity against wheat (percentage phytotoxicity), Wheat - CQC
Summary of the method: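 Test plants raised in pots in a glasshouse (24/18 °C warm or 20/16 °C cool species day/night, 16 h light, 65% humidity) and treated post-emergence about 12 days after sowing. Visual percentage phytotoxicity scored 15 days after application (0% = no damage, 100% = total damage).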

[1] = tested on: Echinochloa crus-galli (ECHCG); test: Glasshouse assay for herbicidal activity, pre-/post-emergence (percentage phytotoxicity); settings: Echinochloa crus-galli, Rate 250 g/ha, 100%=total damage, 0%=no damage
Summary of the method: (§1)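 Seeds sown in standard soil in pots, grown 1 day (pre-emergence) or ~12 days (post-emergence) before treatment. Glasshouse: warm species 24/18 °C, cool species 20/16 °C day/night, 16 h light, 65% humidity, watered twice daily. Visual phytotoxicity scored 15DAA (post) or 20DAA (pre); 0% none, 100% total damage.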

Lolium perenne (LOLPE) = test: as above; settings: Lolium perenne, Rate 250 g/ha, 100%=total damage, 0%=no damage
Summary of the method: as §1

[2] = tested on: Alopecurus myosuroides (ALOMY); test: as above; settings: Alopecurus myosuroides, Rate 250 g/ha, 100%=total damage, 0%=no damage
Summary of the method: as §1

Avena fatua (AVEFA) = test: as above; settings: Avena fatua, Rate 250 g/ha, 100%=total damage, 0%=no damage
Summary of the method: as §1

[3] = post-emergence, 360 h, post-emergence, visual assessment 15 DAA, read-out: Post-emergence herbicidal activity (percentage phytotoxicity), ECHCG POST
[4] = pre-emergence, 480 h, pre-emergence, visual assessment 20 DAA, read-out: Pre-emergence herbicidal activity (percentage phytotoxicity), ECHCG PRE
[5] = post-emergence, 360 h, post-emergence, visual assessment 15 DAA, read-out: Post-emergence herbicidal activity (percentage phytotoxicity), LOLPE POST
[6] = pre-emergence, 480 h, pre-emergence, visual assessment 20 DAA, read-out: Pre-emergence herbicidal activity (percentage phytotoxicity), LOLPE PRE
[7] = 360 h, post-emergence, visual assessment 15 DAA, read-out: Post-emergence herbicidal activity (percentage phytotoxicity), ALOMY POST
[8] = 480 h, pre-emergence, visual assessment 20 DAA, read-out: Pre-emergence herbicidal activity (percentage phytotoxicity), ALOMY PRE
[9] = post-emergence, 360 h, post-emergence, visual assessment 15 DAA, read-out: Post-emergence herbicidal activity (percentage phytotoxicity), AVEFA POST
[10] = pre-emergence, 480 h, pre-emergence, visual assessment 20 DAA, read-out: Pre-emergence herbicidal activity (percentage phytotoxicity), AVEFA PRE

Structure (SMILES) | Post-emergence herbicidal activity against wheat (percentage phytotoxicity), +CQC (wheat) [%] | percent phytotoxicity (crop damage) to wheat at 250 g/ha (wheat) [%] | pest or weed control at 250 g/ha [1, 3] [%] | pest or weed control at 250 g/ha [1, 4] [%] | pest or weed control at 250 g/ha (Lolium perenne (LOLPE); [5]) [%] | pest or weed control at 250 g/ha (Lolium perenne (LOLPE); [6]) [%] | pest or weed control at 250 g/ha [2, 7] [%] | pest or weed control at 250 g/ha [2, 8] [%] | pest or weed control at 250 g/ha (Avena fatua (AVEFA); [9]) [%] | pest or weed control at 250 g/ha (Avena fatua (AVEFA); [10]) [%]
Cc1cc(C)c(C2C(=O)CC(CCNC(=O)NC(=O)c3ccc(F)c(F)c3)C2=O)c(C)c1 (centres unmarked) [Compound A56] | 70 | 80 | 80 | 60 | 90 | 80 | 80 | 70 | 80 | 40
Cc1cc(C)c(C2C(=O)CC(CCNC(=O)NC(=O)c3ccc(F)cc3C(F)(F)F)C2=O)c(C)c1 (centres unmarked) [Compound A69] | 80 | 90 | 70 | 70 | 100 | 80 | 100 | 80 | 90 | 80
Cc1cc(C)c(C2C(=O)CC(CCNS(=O)(=O)c3ccc(OC(F)(F)F)cc3)C2=O)c(C)c1 (centres unmarked) [Compound A85] | 10 | 20 | 40 | 70 | 50 | 80 | 60 | 70 | 80 | 80
Cc1cc(C)c(C2C(=O)CC(CCNC(=O)NC(=O)c3ccc(Cl)c(Cl)c3)C2=O)c(C)c1 (centres unmarked) [Compound A68] | 0 | 90 | 70 | 10 | 80 | 30 | 50 | 0 | 0 | 10
Cc1cc(C)c(C2C(=O)CC(CCNC(N)=O)C2=O)c(C)c1 (centres unmarked) [Compound A6] | 10 | 10 | 100 | 90 | 90 | 80 | 70 | 30 | 90 | 0
Cc1cc(C)c(C2C(=O)CC(CCNC(=O)Nc3ccccc3F)C2=O)c(C)c1 (centres unmarked) [Compound A45] | 0 | 0 | 40 | 80 | 80 | 90 | 20 | 0 | 0 | 0
Cc1cc(C)c(C2C(=O)CC(CCNC(=O)NC(=O)c3cc(C(F)(F)F)ccc3Cl)C2=O)c(C)c1 (centres unmarked) [Compound A62] | 70 | 80 | 80 | 80 | 80 | 40 | 90 | 70 | 80 | 30
Cc1cc(C)c(C2C(=O)CC(CCNC(=O)NC(C)(C)C)C2=O)c(C)c1 (centres unmarked) [Compound A5] | 20 | 50 | 100 | 90 | 90 | 90 | 80 | 100 | 90 | 80
Cc1cc(-n2cc(Cl)cn2)cc(C)c1C1C(=O)CC(CCNC(=O)N(C)c2ccccn2)C1=O (centres unmarked) [Compound A20] | 0 | 80 | 100 | 100 | 90 | 80 | 80 | 20 | 100 | 80
Cc1cc(C)c(C2C(=O)CC(CCNC(=O)NC(=O)c3ccc(Cl)cc3)C2=O)c(C)c1 (centres unmarked) [Compound A51] | 80 | 80 | 90 | 90 | 90 | 60 | 90 | 70 | 80 | 30
Cc1cc(C)c(C2C(=O)CC(CCNC(=O)Nc3ccccc3)C2=O)c(C)c1 (centres unmarked) [Compound A9, 1-[2-[2,4-dioxo-3-(2,4,6-trimethylphenyl)cyclopentyl]ethyl]-3-phenyl-urea] | 10 | 40 | 80 | 80 | 90 | 80 | 30 | 60 | 80 | 60
CON=C(C)C(=O)NCCC1CC(=O)C(c2c(C)cc(-n3cc(Cl)cn3)cc2C)C1=O (centres unmarked) [Compound A38] | 30 | 70 | 100 | 100 | 80 | 70 | 70 | 70 | 80 | 70
CCS(=O)(=O)NCCC1CC(=O)C(c2c(C)cc(C)cc2C)C1=O (centres unmarked) [Compound A83] | 10 | 80 | 70 | 70 | 70 | 90 | 80 | 90 | 80 | 80
Cc1cc(C)c(C2C(=O)CC(CCNC(=O)NC(=O)c3ccc(C(F)(F)F)cc3)C2=O)c(C)c1 (centres unmarked) [Compound A72] | 70 | 80 | 80 | 0 | 80 | 10 | 30 | 20 | 90 | 20
